This note sets out measurements from PubChem BioAssay (NCI).

Each structure is given as a SMILES string.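 Results reflect a 48-hour exposure of cells in 96-well plates to compound at five concentrations. GI50 = concentration required for 50% inhibition of growth. TGI denotes the concentration required for complete inhibition of growth.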 Some results are limits rather than exact numbers.

Some test systems named below: 786-0 renal; EKVX NSCLC; HOP-62 NSCLC; HT29 colon; KM12 colon; OVCAR-3 ovarian; SF-539 CNS; SR leukemia; UACC-257 melanoma; M14 melanoma.
What all share (experiment): inhibition of tumour cell growth, NCI panel, 48 h

In the case of `COc1ccc(/C=C2\CC(C)CC3C2=NN(C(C)=O)C3c2ccc(OC)cc2)cc1` (stereo not drawn), the GI50 is 18.8 µM in the assay on 786-0 renal; 27.3 µM in the assay on EKVX NSCLC; 20 µM in the assay with HOP-62 NSCLC; 9.08 µM with HT29 colon; 16.9 µM with KM12 colon; 18.7 µM with OVCAR-3 ovarian. Further, the GI50 in the assay on SF-539 CNS was 19 µM; in the assay on SR leukemia, 20.4 µM; in the assay on UACC-257 melanoma, 19.8 µM. Also, the TGI was 37.7 µM in the assay on 786-0 renal; greater than 100 µM in the assay with EKVX NSCLC; 41.4 µM in the assay with HOP-62 NSCLC; 40.2 µM in the assay with HT29 colon; 46.5 µM with KM12 colon; 42.4 µM in the assay on OVCAR-3 ovarian. In addition, the TGI in the assay with SF-539 CNS came out at 38.1 µM; with SR leukemia, 50.5 µM; in the assay on UACC-257 melanoma it was 45 µM.

`NCCN.NCCN.O=C[O-].O=C[O-].[Co+3].[O-][Cl+3]([O-])([O-])[O-]`: the GI50 in the assay on 786-0 renal, with HOP-62 NSCLC, in the assay with HT29 colon, in the assay on KM12 colon, in the assay on M14 melanoma and in the assay on OVCAR-3 ovarian was greater than 100 µM each time. Besides, the GI50 in the assay with SF-539 CNS, with SR leukemia and with UACC-257 melanoma was greater than 100 µM throughout. The TGI with 786-0 renal, in the assay on HOP-62 NSCLC, in the assay with HT29 colon, in the assay on KM12 colon, in the assay with M14 melanoma and in the assay with OVCAR-3 ovarian was greater than 100 µM in each case. Further, the TGI in the assay with SF-539 CNS, with SR leukemia and in the assay with UACC-257 melanoma was greater than 100 µM throughout.

Regarding `CC#C/C(=N\OC[C@H]1COCCN1)c1ccc2ncnc(Nc3ccc(OCc4cccc(F)c4)c(Cl)c3)c2c1`, the GI50 is 1.52 µM in the assay with 786-0 renal; 0.343 µM with EKVX NSCLC; 3 µM with HOP-62 NSCLC; 1.62 µM in the assay with HT29 colon; 1.76 µM with M14 melanoma; 1.43 µM in the assay with OVCAR-3 ovarian. Moreover, the GI50 is 1.68 µM with SF-539 CNS, 1.68 µM with SR leukemia and 1.85 µM with UACC-257 melanoma. The TGI in the assay with 786-0 renal is 3.07 µM; in the assay on EKVX NSCLC, 2.44 µM; with HOP-62 NSCLC, 11.3 µM; in the assay with HT29 colon it was 3.09 µM; with M14 melanoma, 3.59 µM; with OVCAR-3 ovarian, 2.94 µM. The values for the TGI with SF-539 CNS, with SR leukemia and in the assay on UACC-257 melanoma were 3.2 µM, 5.34 µM and 3.45 µM, respectively.

Turning to `CCCCCCCCCCCCCCCC[N+](C)(CCO)Cc1cnc[nH]1` (stereo not drawn), the GI50 in the assay on 786-0 renal is 0.852 µM; in the assay with EKVX NSCLC, 1.47 µM; with HOP-62 NSCLC, 0.456 µM; in the assay with HT29 colon, 0.382 µM; in the assay with M14 melanoma, 0.598 µM; in the assay on OVCAR-3 ovarian, 0.995 µM. The GI50 with SF-539 CNS is 1.78 µM; with SR leukemia, 1.97 µM; in the assay with UACC-257 melanoma, 4.08 µM. In addition, the TGI is 2.84 µM in the assay on 786-0 renal; 6.63 µM with EKVX NSCLC; 1.68 µM in the assay with HOP-62 NSCLC; 12.3 µM in the assay on HT29 colon; 2.22 µM in the assay on M14 melanoma; 3.31 µM in the assay on OVCAR-3 ovarian. For the same compound, the TGI in the assay on SF-539 CNS is 4.75 µM; in the assay on SR leukemia it was greater than 100 µM; with UACC-257 melanoma, 72.7 µM.

Turning to `O=Cc1ccc(-c2ccc(-c3nc4ccccc4o3)cc2)s1`, the GI50 with 786-0 renal was 31.9 µM; in the assay with EKVX NSCLC it was 20.3 µM; with HOP-62 NSCLC it was 27.9 µM; in the assay on HT29 colon, 53.8 µM; with KM12 colon, 30.3 µM; in the assay with M14 melanoma it was 26.6 µM. Moreover, the results for the GI50 with OVCAR-3 ovarian, with SR leukemia and with UACC-257 melanoma were 16.5 µM, 15.3 µM and 49.3 µM, respectively. The TGI with 786-0 renal was greater than 100 µM; with EKVX NSCLC, 77 µM; with HOP-62 NSCLC, 82 µM; with HT29 colon it was greater than 100 µM; in the assay with KM12 colon it was greater than 100 µM; with M14 melanoma, 70 µM. Moreover, the TGI with OVCAR-3 ovarian was 45.4 µM; with SR leukemia, 47.7 µM; in the assay with UACC-257 melanoma, greater than 100 µM.

Take `COC1=CC(=O)C(OC)=C(OC)C1=O`: the GI50 in the assay with 786-0 renal was 18.3 µM; in the assay on EKVX NSCLC, 15.9 µM; in the assay with HOP-62 NSCLC it was 16.2 µM; with HT29 colon, 22.5 µM; in the assay on M14 melanoma, 15.6 µM; in the assay on OVCAR-3 ovarian it was 17.2 µM. Also, the GI50 was 16.5 µM in the assay with SF-539 CNS, 2.71 µM with SR leukemia and 14.2 µM in the assay with UACC-257 melanoma. The TGI in the assay with 786-0 renal amounted to 32.5 µM; in the assay on EKVX NSCLC it was 29.8 µM; in the assay with HOP-62 NSCLC, 29.7 µM; with HT29 colon, 53.8 µM; with M14 melanoma, 29.7 µM; in the assay on OVCAR-3 ovarian, 31.1 µM. The TGI with SF-539 CNS was 30.9 µM; with SR leukemia, 9.04 µM; with UACC-257 melanoma, 27.7 µM.
